Patent US20190100534A1, “Cephem Compounds with Latent Reactive Groups” (Gladius Pharmaceuticals, Inc., priority 2017, published 2019)

What was measured:
Assay type in all cases: cell-based
[1] = test system: Pseudomonas aeruginosa PA-RR-(98023895); assay: MIC determination; settings: PA-RR-(98023895), CAMH broth, 20 μM Apo-Transferrin, 37° C., 18 hours; for MIC: Pseudomonas aeruginosa, read-out: Minimum Inhibitory Concentrations, PA-RR-(98023895)
In short: (§1)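 Broth microdilution in cation-adjusted Mueller-Hinton broth with 20 μM apo-transferrin, two-fold compound series from 64 μg/mL, inoculum adjusted to 0.5 McFarland from 4-5 h LB cultures. Plates incubated 18 h at 37 °C. MIC taken as lowest concentration leaving a clear well.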

[2] = test system: Pseudomonas aeruginosa (PA); assay: MIC determination; settings: PA, CAMH broth, 20 μM Apo-Transferrin, 37° C., 18 hours; for MIC: Pseudomonas aeruginosa, read-out: Minimum Inhibitory Concentrations, PA
In short: as §1

[3] = test system: Pseudomonas aeruginosa PA-RR-(980151052); assay: MIC determination; settings: PA-RR-(980151052), CAMH broth, 20 μM Apo-Transferrin, 37° C., 18 hours; for MIC: Pseudomonas aeruginosa, read-out: Minimum Inhibitory Concentrations, PA-RR-(980151052)
In short: as §1

[4] = test system: Pseudomonas aeruginosa PA (URMC-2); assay: MIC determination; settings: PA (URMC-2), CAMH broth, 20 μM Apo-Transferrin, 37° C., 18 hours; for MIC: Pseudomonas aeruginosa, read-out: Minimum Inhibitory Concentrations, PA (URMC-2)
In short: as §1

[5] = test system: Pseudomonas aeruginosa PA-RR-(G7305586); assay: MIC determination; settings: PA-RR-(G7305586), CAMH broth, 20 μM Apo-Transferrin, 37° C., 18 hours; for MIC: Pseudomonas aeruginosa, read-out: Minimum Inhibitory Concentrations, PA-RR-(G7305586)
In short: as §1

[6] = test system: Pseudomonas aeruginosa PA (RR-1); assay: MIC determination; settings: PA (RR-1), CAMH broth, 20 μM Apo-Transferrin, 37° C., 18 hours; for MIC: Pseudomonas aeruginosa, read-out: Minimum Inhibitory Concentrations, PA (RR-1)
In short: as §1

[7] = test system: Pseudomonas aeruginosa PA (RR-2); assay: MIC determination; settings: PA (RR-2), CAMH broth, 20 μM Apo-Transferrin, 37° C., 18 hours; for MIC: Pseudomonas aeruginosa, read-out: Minimum Inhibitory Concentrations, PA (RR-2)
In short: as §1

[8] = test system: Pseudomonas aeruginosa PA-RR-(G8062859); assay: MIC determination; settings: PA-RR-(G8062859), CAMH broth, 20 μM Apo-Transferrin, 37° C., 18 hours; for MIC: Pseudomonas aeruginosa, read-out: Minimum Inhibitory Concentrations, PA-RR-(G8062859)
In short: as §1

[9] = test system: Pseudomonas aeruginosa PA (URMC-3); assay: MIC determination; settings: PA (URMC-3), CAMH broth, 20 μM Apo-Transferrin, 37° C., 18 hours; for MIC: Pseudomonas aeruginosa, read-out: Minimum Inhibitory Concentrations, PA (URMC-3)
In short: as §1

[10] = test system: Pseudomonas aeruginosa PA-RR-(G7294437); assay: MIC determination; settings: PA-RR-(G7294437), CAMH broth, 20 μM Apo-Transferrin, 37° C., 18 hours; for MIC: Pseudomonas aeruginosa, read-out: Minimum Inhibitory Concentrations, PA-RR-(G7294437)
In short: as §1

[11] = test system: Pseudomonas aeruginosa PA-RR-(purple Fre D); assay: MIC determination; settings: CAMH broth, 20 μM Apo-Transferrin, 37° C., 18 hours; for MIC: Pseudomonas aeruginosa, read-out: Minimum Inhibitory Concentrations, PA-RR-(purple Fre D)
In short: as §1

[12] = test system: Pseudomonas aeruginosa PA-RR-(G7304100); assay: MIC determination; settings: PA-RR-(G7304100), CAMH broth, 20 μM Apo-Transferrin, 37° C., 18 hours; for MIC: Pseudomonas aeruginosa, read-out: Minimum Inhibitory Concentrations, PA-RR-(G7304100)
In short: as §1

E. coli J53 Alone = assay: MIC determination, isogenic E. coli strains; settings: for Mimimum Inhibitory Concentrations, J53 Alone: CAMH broth, 20 μM Apo-Transferrin, 37° C., 18 hours; for MIC: Escherichia coli, J53ALONE, 18 h, read-out: Mimimum Inhibitory Concentrations, J53 Alone
In short: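 Broth microdilution in cation-adjusted Mueller-Hinton broth with 20 μM apo-transferrin, 2-fold compound series from 64 μg/mL. E. coli J53, alone or transformed with a pBC-SK(+) plasmid carrying the beta-lactamase gene (e.g. DHA-1), inoculated from 0.5 McFarland suspension; 18 h at 37° C; MIC = lowest concentration with clear well.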

[13] = test system: Isogenic E. coli J58 strain carrying NDM-1; assay: MIC determination, isogenic E. coli strains; settings: for MIC: Escherichia coli, 18 h, read-out: Mimimum Inhibitory Concentrations, NDM-1
In short: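 E. coli J53 transformed with a pBC-SK(+) plasmid encoding NDM-1 was adjusted to 0.08-0.1 OD600. It was grown 18 h at 37° C in CAMH broth containing 20 μM apo-transferrin with twofold compound dilutions from 64 μg/mL. MIC was taken as the lowest concentration giving a transparent well.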

[14] = test system: Isogenic E. coli J58 strain carrying SHV-1; assay: MIC determination, isogenic E. coli strains; settings: for MIC: Escherichia coli, 18 h, read-out: Mimimum Inhibitory Concentrations, SHV-1
In short: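 MIC is the lowest compound concentration leaving a transparent well after overnight (18 h) incubation at 37 °C. The test strain was E. coli J53 expressing plasmid-borne SHV-1 beta-lactamase from pBC-SK(+), adjusted to 0.5 McFarland. Compounds were twofold serially diluted, starting at 64 μg/mL, in CAMH broth supplemented with 20 μM apo-transferrin.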

[15] = test system: Isogenic E. coli J58 strain carrying KPC-3; assay: MIC determination, isogenic E. coli strains; settings: for MIC: Escherichia coli, 18 h, read-out: Mimimum Inhibitory Concentrations, KPC-3
In short: (§2)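 Broth microdilution in cation-adjusted Mueller-Hinton broth with 20 μM apo-transferrin, compound at 64 down to […], inoculum set to 0.5 McFarland. E. coli J53 transformed with pBC-SK(+) carrying the synthetic beta-lactamase gene was used. Plates were incubated 18 h at 37 °C; MIC is the lowest concentration giving a clear well.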

[16] = test system: Isogenic E. coli J58 strain carrying KPC-2; assay: MIC determination, isogenic E. coli strains; settings: for MIC: Escherichia coli, 18 h, read-out: Mimimum Inhibitory Concentrations, KPC-2
In short: as §2

[17] = test system: Isogenic E. coli J58 strain carrying IMP-1; assay: MIC determination, isogenic E. coli strains; settings: for MIC: Escherichia coli, 18 h, read-out: Mimimum Inhibitory Concentrations, IMP-1
In short: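 Broth microdilution in cation-adjusted Mueller-Hinton broth with 20 μM apo-transferrin, compound serially diluted two-fold from 64 μg/mL, against E. coli J53 carrying plasmid-borne IMP-1. Inoculum adjusted to 0.5 McFarland; plates incubated 18 h at 37° C. MIC taken as lowest concentration giving a clear well.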

Q: With `CC(C)(O/N=C(\C(=O)N[C@@H]1C(=O)N2C(C(=O)O)=C(C=Cc3ccc(C[n+]4ccc5cc(O)c(O)cc5c4)cc3)CS[C@H]12)c1csc(N)n1)C(=O)O` (mixture of isomers) [Compound 435, 2-(4-((E/Z)-2-((6R,7R)-7-((Z)-2-(2-aminothiazol-4-yl)-2-(((2-carboxypropan-2-yl)oxy)imino)acetamido)-2-carboxy-8-oxo-5-thia-1-azabicyclo[4.2.0]oct-2-en-3-yl)vinyl)benzyl)-6,7-dihydroxyisoquinolin-2-ium] as the molecule, how does the “Minimum Inhibitory Concentrations, PA-RR-(98023895)” value [1] read?
A: 1 microgram/mL

Q: What about the “Minimum Inhibitory Concentrations, PA” value [2] of the same molecule?
A: ≤0.06 microgram/mL

Q: What about the “Minimum Inhibitory Concentrations, PA-RR-(980151052)” value [3] of the same molecule?
A: 0.13 microgram/mL

Q: And the “Minimum Inhibitory Concentrations, PA (URMC-2)” value [4]?
A: 0.25 microgram/mL

Q: What about the “Minimum Inhibitory Concentrations, PA-RR-(G7305586)” value [5] of the same molecule?
A: 0.25 microgram/mL

Q: What about the “Minimum Inhibitory Concentrations, PA (RR-1)” value [6] of the same molecule?
A: 0.25 microgram/mL

Q: And the “Minimum Inhibitory Concentrations, PA (RR-2)” value [7]?
A: ≤0.06 microgram/mL

Q: What about the “Minimum Inhibitory Concentrations, PA-RR-(G8062859)” value [8] of the same molecule?
A: 0.5 microgram/mL

Q: What about the “Minimum Inhibitory Concentrations, PA (URMC-3)” value [9] of the same molecule?
A: ≤0.06 microgram/mL

Q: What about the “Minimum Inhibitory Concentrations, PA-RR-(G7294437)” value [10] of the same molecule?
A: ≤0.06 microgram/mL

Q: And the “Minimum Inhibitory Concentrations, PA-RR-(purple Fre D)” value [11]?
A: 0.5 microgram/mL

Q: What about the “Minimum Inhibitory Concentrations, PA-RR-(G7304100)” value [12] of the same molecule?
A: ≤0.06 microgram/mL

Q: And the “Mimimum Inhibitory Concentrations, J53 Alone” value (E. coli J53 Alone; Table 4-1)?
A: ≤0.06 microgram/mL

Q: And the “Mimimum Inhibitory Concentrations, J53 Alone” value (E. coli J53 Alone; Table 4-2)?
A: ≤0.06 microgram/mL

Q: And the “Mimimum Inhibitory Concentrations, NDM-1” value ([13]; isogenic E. coli strain, NDM-1, CAMH broth, 20 μM Apo-Transferrin, 37° C., 18 hours)?
A: 2 microgram/mL

Q: And the “MICs for an E. coli strain carrying the gene for NDM-1, in words” value ([13]; review of Tables 4-1 and 4-2)?
A: lower MICS compared to other compounds tested

Q: And the “Mimimum Inhibitory Concentrations, SHV-1” value ([14]; isogenic E. coli strain, SHV-1, CAMH broth, 20 μM Apo-Transferrin, 37° C., 18 hours)?
A: 0.13 microgram/mL

Q: What about the “Mimimum Inhibitory Concentrations, KPC-3” value ([15]; isogenic E. coli strain, KPC-3, CAMH broth, 20 μM Apo-Transferrin, 37° C., 18 hours) of the same molecule?
A: 0.13 microgram/mL

Q: And the “Mimimum Inhibitory Concentrations, KPC-2” value ([16]; isogenic E. coli strain, KPC-2, CAMH broth, 20 μM Apo-Transferrin, 37° C., 18 hours)?
A: 0.25 microgram/mL

Q: What about the “Mimimum Inhibitory Concentrations, IMP-1” value ([17]; isogenic E. coli strain, IMP-1, CAMH broth, 20 μM Apo-Transferrin, 37° C., 18 hours) of the same molecule?
A: 0.13 microgram/mL

Q: What about the “MICs for an E. coli strain carrying the gene for carbapenemase IMP-1, in words” value ([17]; review of Tables 4-1 and 4-2) of the same molecule?
A: low microgram/mL MICs

Q: Which MIC [1] does the source give for `CC(C)(O/N=C(\C(=O)N[C@@H]1C(=O)N2C(C(=O)O)=C(C=Cc3ccc(C[N+]4(C)Cc5cc(O)c(O)cc5C4)cc3)CS[C@H]12)c1csc(N)n1)C(=O)O` (mixture of isomers) [Compound 424, 2-(4-((E/Z)-2-((6R,7R)-7-((Z)-2-(2-aminothiazol-4-yl)-2-(((2-carboxypropan-2-yl)oxy)imino)acetamido)-2-carboxy-8-oxo-5-thia-1-azabicyclo[4.2.0]oct-2-en-3-yl)vinyl)benzyl)-5,6-dihydroxy-2-methylisoindolin-2-ium] here?
A: 8 µg/mL

Q: And the MIC [2]?
A: 2 µg/mL

Q: And the MIC [3]?
A: 4 µg/mL

Q: What about the MIC [4] of the same molecule?
A: 4 µg/mL

Q: And the MIC [5]?
A: 8 µg/mL

Q: What about the MIC [6] of the same molecule?
A: 4 µg/mL

Q: What about the MIC [7] of the same molecule?
A: 4 µg/mL

Q: And the MIC [8]?
A: 2 µg/mL

Q: And the MIC [9]?
A: 0.13 µg/mL

Q: What about the MIC [10] of the same molecule?
A: 0.25 µg/mL

Q: What about the MIC [11] of the same molecule?
A: 2 µg/mL

Q: What about the MIC [12] of the same molecule?
A: ≤ 0.06 µg/mL

Q: What about the MIC (E. coli J53 Alone) of the same molecule?
A: 0.25 µg/mL

Q: And the “Mimimum Inhibitory Concentrations, J53 Alone” value (E. coli J53 Alone; Table 4-2)?
A: 0.25 microgram/mL

Q: What about the MIC [13] of the same molecule?
A: > 64 µg/mL

Q: And the MIC [14]?
A: 2 µg/mL

Q: And the MIC [15]?
A: 8 µg/mL

Q: What about the MIC [16] of the same molecule?
A: 32 µg/mL

Q: What about the MIC [17] of the same molecule?
A: > 64 µg/mL

Q: How did the MIC [1] turn out when `Cn1c[n+](Cc2ccc(C=CC3=C(C(=O)O)N4C(=O)[C@@H](NC(=O)/C(=N\OC(C)(C)C(=O)O)c5csc(N)n5)[C@H]4SC3)cc2)cc1C(=O)Nc1ccc(O)c(O)c1` (mixture of isomers) [Compound 411, 3-(4-((E/Z)-2-((6R,7R)-7-((Z)-2-(2-aminothiazol-4-yl)-2-(((2-carboxypropan-2-yl)oxy)imino)acetamido)-2-carboxy-8-oxo-5-thia-1-azabicyclo[4.2.0]oct-2-en-3-yl)vinyl)benzyl)-5-((3,4-dihydroxyphenyl)carbamoyl)-1-methyl-1H-imidazol-3-ium] was run?
A: 8 µg/mL

Q: What about the MIC [2] of the same molecule?
A: 8 µg/mL

Q: What about the MIC [3] of the same molecule?
A: 8 µg/mL

Q: And the MIC [4]?
A: 4 µg/mL

Q: What about the MIC [5] of the same molecule?
A: 16 µg/mL

Q: And the MIC [6]?
A: 4 µg/mL

Q: What about the MIC [7] of the same molecule?
A: 4 µg/mL

Q: And the MIC [8]?
A: 2 µg/mL

Q: And the MIC [9]?
A: 0.5 µg/mL

Q: What about the MIC [10] of the same molecule?
A: 1 µg/mL

Q: And the MIC [11]?
A: 2 µg/mL

Q: What about the MIC [12] of the same molecule?
A: 1 µg/mL

Q: What about the MIC (E. coli J53 Alone) of the same molecule?
A: 0.5 µg/mL

Q: And the “Mimimum Inhibitory Concentrations, J53 Alone” value (E. coli J53 Alone; Table 4-2)?
A: 0.5 microgram/mL

Q: And the MIC [13]?
A: > 64 µg/mL

Q: What about the MIC [14] of the same molecule?
A: 4 µg/mL

Q: What about the MIC [15] of the same molecule?
A: 8 µg/mL

Q: What about the MIC [16] of the same molecule?
A: 32 µg/mL

Q: And the MIC [17]?
A: 64 µg/mL
